Results taken from PubChem BioAssay (NCI).
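Test compounds were applied to cells in 96-well plates for 48 hours at 5 doses. Abbreviation: GI50, concentration required for 50% inhibition of growth. The concentration for full growth arrest is given as TGI.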

Assays:
Test in all cases: NCI anticancer screen, dose series, 48 h
786-0 renal = system: 786-0 renal
A498 renal = system: A498 renal
A549 NSCLC = system: A549 NSCLC
ACHN renal = system: ACHN renal
BT-549 breast = system: BT-549 breast
CAKI-1 renal = system: CAKI-1 renal
COLO 205 colon = system: COLO 205 colon
DU-145 prostate = system: DU-145 prostate
EKVX NSCLC = system: EKVX NSCLC
HCT-116 colon = system: HCT-116 colon
HCT-15 colon = system: HCT-15 colon
HL-60(TB) leukemia = system: HL-60(TB) leukemia
HOP-62 NSCLC = system: HOP-62 NSCLC
HOP-92 NSCLC = system: HOP-92 NSCLC
HS 578T breast = system: HS 578T breast
HT29 colon = system: HT29 colon
IGROV1 ovarian = system: IGROV1 ovarian
K-562 leukemia = system: K-562 leukemia
KM12 colon = system: KM12 colon
LOX IMVI melanoma = system: LOX IMVI melanoma
M14 melanoma = system: M14 melanoma
MCF7 breast = system: MCF7 breast
MDA-MB-231 breast = system: MDA-MB-231 breast
MDA-MB-435 = system: MDA-MB-435
MOLT-4 leukemia = system: MOLT-4 leukemia
NCI-H226 lung = system: NCI-H226 lung
NCI-H23 lung = system: NCI-H23 lung
NCI-H460 lung = system: NCI-H460 lung
NCI-H522 lung = system: NCI-H522 lung
NCI/ADR-RES ovarian = system: NCI/ADR-RES ovarian
OVCAR-3 ovarian = system: OVCAR-3 ovarian
OVCAR-4 ovarian = system: OVCAR-4 ovarian
OVCAR-5 ovarian = system: OVCAR-5 ovarian
OVCAR-8 ovarian = system: OVCAR-8 ovarian
PC-3 prostate = system: PC-3 prostate
RPMI-8226 leukemia = system: RPMI-8226 leukemia
RXF 393 renal = system: RXF 393 renal
SF-268 CNS = system: SF-268 CNS
SF-295 CNS = system: SF-295 CNS
SF-539 CNS = system: SF-539 CNS
SK-MEL-2 melanoma = system: SK-MEL-2 melanoma
SK-MEL-28 melanoma = system: SK-MEL-28 melanoma
SK-MEL-5 melanoma = system: SK-MEL-5 melanoma
SK-OV-3 ovarian = system: SK-OV-3 ovarian
SN12C renal = system: SN12C renal
SNB-19 CNS = system: SNB-19 CNS
SNB-75 CNS = system: SNB-75 CNS
SR leukemia = system: SR leukemia
SW-620 colon = system: SW-620 colon
U251 CNS = system: U251 CNS
UACC-257 melanoma = system: UACC-257 melanoma
UACC-62 melanoma = system: UACC-62 melanoma
UO-31 renal = system: UO-31 renal
CCRF-CEM leukemia = system: CCRF-CEM leukemia
HCC-2998 colon = system: HCC-2998 colon
MALME-3M melanoma = system: MALME-3M melanoma
T-47D breast = system: T-47D breast
TK-10 renal = system: TK-10 renal

## COc1ncnc(NS(=O)(=O)c2ccc(N=C3C(=O)N(CN4CCN(c5c(F)cc6c(=O)c(C(=O)O)cn(C7CC7)c6c5OC)CC4C)c4ccc(Cl)cc43)cc2)c1OC (stereo not given)
786-0 renal
  GI50: 21.4 µM
  TGI: > 50 µM
A498 renal
  GI50: 40.8 µM
  TGI: > 50 µM
A549 NSCLC
  GI50: 21.2 µM
  TGI: > 50 µM
ACHN renal
  GI50: 7.17 µM
  TGI: 20.6 µM
BT-549 breast
  GI50: 20.6 µM
  TGI: > 50 µM
CAKI-1 renal
  GI50: 6.44 µM
  TGI: 26.1 µM
COLO 205 colon
  GI50: 19.6 µM
  TGI: > 50 µM
DU-145 prostate
  GI50: 21 µM
  TGI: > 50 µM
EKVX NSCLC
  GI50: 27.7 µM
  TGI: > 50 µM
HCT-116 colon
  GI50: 11.5 µM
  TGI: > 50 µM
HCT-15 colon
  GI50: 7.48 µM
  TGI: 23 µM
HL-60(TB) leukemia
  GI50: 14 µM
  TGI: > 50 µM
HOP-62 NSCLC
  GI50: 23.4 µM
  TGI: > 50 µM
HOP-92 NSCLC
  GI50: 10.6 µM
  TGI: > 50 µM
HS 578T breast
  GI50: 23.1 µM
  TGI: > 50 µM
HT29 colon
  GI50: 18.4 µM
  TGI: > 50 µM
IGROV1 ovarian
  GI50: 20 µM
  TGI: > 50 µM
K-562 leukemia
  GI50: 20.5 µM
  TGI: > 50 µM
KM12 colon
  GI50: 13 µM
  TGI: > 50 µM
LOX IMVI melanoma
  GI50: 6.89 µM
  TGI: 15.6 µM
M14 melanoma
  GI50: 21.1 µM
  TGI: > 50 µM
MCF7 breast
  GI50: 12 µM
  TGI: > 50 µM
MDA-MB-231 breast
  GI50: 6.3 µM
  TGI: > 50 µM
MDA-MB-435
  GI50: 9.34 µM
  TGI: 19 µM
MOLT-4 leukemia
  GI50: > 50 µM
  TGI: > 50 µM
NCI-H226 lung
  GI50: 27.1 µM
  TGI: > 50 µM
NCI-H23 lung
  GI50: 13.5 µM
  TGI: 47.3 µM
NCI-H460 lung
  GI50: 11 µM
  TGI: > 50 µM
NCI-H522 lung
  GI50: > 50 µM
  TGI: > 50 µM
NCI/ADR-RES ovarian
  GI50: 8.76 µM
  TGI: 42.1 µM
OVCAR-3 ovarian
  GI50: 13.1 µM
  TGI: > 50 µM
OVCAR-4 ovarian
  GI50: 37.7 µM
  TGI: > 50 µM
OVCAR-5 ovarian
  GI50: 19.2 µM
  TGI: > 50 µM
OVCAR-8 ovarian
  GI50: 14 µM
  TGI: > 50 µM
PC-3 prostate
  GI50: 9.39 µM
  TGI: > 50 µM
RPMI-8226 leukemia
  GI50: 8.33 µM
  TGI: 28.1 µM
RXF 393 renal
  GI50: 10.8 µM
  TGI: 39.6 µM
SF-268 CNS
  GI50: 10.7 µM
  TGI: > 50 µM
SF-295 CNS
  GI50: 10.7 µM
  TGI: > 50 µM
SF-539 CNS
  GI50: 16.8 µM
  TGI: > 50 µM
SK-MEL-2 melanoma
  GI50: 35.2 µM
  TGI: > 50 µM
SK-MEL-28 melanoma
  GI50: 26.1 µM
  TGI: > 50 µM
SK-MEL-5 melanoma
  GI50: 8.63 µM
  TGI: 16.5 µM
SK-OV-3 ovarian
  GI50: 37.7 µM
  TGI: > 50 µM
SN12C renal
  GI50: 16.9 µM
  TGI: > 50 µM
SNB-19 CNS
  GI50: > 50 µM
  TGI: > 50 µM
SNB-75 CNS
  GI50: > 50 µM
  TGI: > 50 µM
SR leukemia
  GI50: 5.3 µM
  TGI: > 50 µM
SW-620 colon
  GI50: 10.7 µM
  TGI: > 50 µM
U251 CNS
  GI50: 9.61 µM
  TGI: 45.2 µM
UACC-257 melanoma
  GI50: 6.32 µM
  TGI: 14.7 µM
UACC-62 melanoma
  GI50: 16.1 µM
  TGI: > 50 µM
UO-31 renal
  GI50: 32.7 µM
  TGI: > 50 µM

## CN1CCN(CCCn2c(=O)c3sc4ncccc4c3n3nnc(-c4ccccc4)c23)CC1
786-0 renal
  GI50: 7.39 µM
  TGI: 14.5 µM
A498 renal
  GI50: 0.159 µM
  TGI: 9.37 µM
A549 NSCLC
  GI50: 6.81 µM
  TGI: 13.8 µM
ACHN renal
  GI50: 8.2 µM
  TGI: 15.1 µM
CAKI-1 renal
  GI50: 6.16 µM
  TGI: 13 µM
CCRF-CEM leukemia
  GI50: 1.55 µM
  TGI: 5.29 µM
COLO 205 colon
  GI50: 7.35 µM
  TGI: 14.6 µM
DU-145 prostate
  GI50: 5.85 µM
  TGI: 12.2 µM
EKVX NSCLC
  GI50: 6.47 µM
  TGI: 13.3 µM
HCC-2998 colon
  GI50: 6.77 µM
  TGI: 13.4 µM
HCT-116 colon
  GI50: 5.23 µM
  TGI: 11.7 µM
HCT-15 colon
  GI50: 6.19 µM
  TGI: 13.2 µM
HL-60(TB) leukemia
  GI50: 0.795 µM
  TGI: 1.73 µM
HOP-62 NSCLC
  GI50: 8.19 µM
  TGI: 15.3 µM
HOP-92 NSCLC
  GI50: 5.8 µM
  TGI: 12.9 µM
HS 578T breast
  GI50: 6.47 µM
  TGI: 16 µM
HT29 colon
  GI50: 2.89 µM
  TGI: 9.54 µM
IGROV1 ovarian
  GI50: 5.93 µM
  TGI: 13.8 µM
K-562 leukemia
  GI50: 0.881 µM
  TGI: 2.05 µM
KM12 colon
  GI50: 4.24 µM
  TGI: 10.7 µM
LOX IMVI melanoma
  GI50: 5.33 µM
  TGI: 11.5 µM
M14 melanoma
  GI50: 2.13 µM
  TGI: 7.38 µM
MALME-3M melanoma
  GI50: 9.41 µM
  TGI: 17.9 µM
MCF7 breast
  GI50: 7.69 µM
  TGI: 15 µM
MDA-MB-231 breast
  GI50: 6.88 µM
  TGI: 13.6 µM
MDA-MB-435
  GI50: 1.18 µM
  TGI: 3.01 µM
MOLT-4 leukemia
  GI50: 1.55 µM
  TGI: 4.95 µM
NCI-H226 lung
  GI50: 7.4 µM
  TGI: 15.3 µM
NCI-H23 lung
  GI50: 8.07 µM
  TGI: 15.3 µM
NCI-H460 lung
  GI50: 6.88 µM
  TGI: 13.7 µM
NCI-H522 lung
  GI50: 7.23 µM
  TGI: 14.4 µM
NCI/ADR-RES ovarian
  GI50: 7.19 µM
  TGI: 14.2 µM
OVCAR-3 ovarian
  GI50: 2.3 µM
  TGI: 7.58 µM
OVCAR-4 ovarian
  GI50: 7.27 µM
  TGI: 14 µM
OVCAR-5 ovarian
  GI50: 8.85 µM
  TGI: 16.9 µM
OVCAR-8 ovarian
  GI50: 7.83 µM
  TGI: 15.3 µM
PC-3 prostate
  GI50: 6.27 µM
  TGI: 13.4 µM
RPMI-8226 leukemia
  GI50: 6.1 µM
  TGI: 15.8 µM
RXF 393 renal
  GI50: 6.36 µM
  TGI: 13.4 µM
SF-268 CNS
  GI50: 6.45 µM
  TGI: 13.2 µM
SF-295 CNS
  GI50: 5.63 µM
  TGI: 12.4 µM
SF-539 CNS
  GI50: 5.72 µM
  TGI: 13.4 µM
SK-MEL-2 melanoma
  GI50: 8.8 µM
  TGI: 16.7 µM
SK-MEL-28 melanoma
  GI50: 8.73 µM
  TGI: 15.8 µM
SK-MEL-5 melanoma
  GI50: 7.21 µM
  TGI: 13.8 µM
SK-OV-3 ovarian
  GI50: 8.88 µM
  TGI: 15.9 µM
SN12C renal
  GI50: 7.2 µM
  TGI: 14.2 µM
SNB-19 CNS
  GI50: 8.41 µM
  TGI: 15.8 µM
SNB-75 CNS
  GI50: 6.82 µM
  TGI: 13.3 µM
SR leukemia
  GI50: 1.11 µM
  TGI: 2.57 µM
SW-620 colon
  GI50: 5.34 µM
  TGI: 11.5 µM
T-47D breast
  GI50: 7.99 µM
  TGI: 15.8 µM
TK-10 renal
  GI50: 6.92 µM
  TGI: 13.6 µM
U251 CNS
  GI50: 5.21 µM
  TGI: 11.2 µM
UACC-257 melanoma
  GI50: 2.27 µM
  TGI: 7.62 µM
UACC-62 melanoma
  GI50: 8.85 µM
  TGI: 16.1 µM
UO-31 renal
  GI50: 5.1 µM
  TGI: 12 µM
